Results from US20250179073A1, “TRICYCLIC HETEROCYCLE COMPOUNDS AS IAP ANTAGONISTS” (Ascentage Pharma (Suzhou) Co., Ltd., priority 2022, published 2025).

Assays:
EVSA-T cells = assay: Cell proliferation assay (CellTiter-Glo), EVSA-T; assay type: cell-based; settings: Homo sapiens, EVSA-T, 72 h, 72 h treatment, Celltiter-Glo luminescence
Summary of the method: (§1)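 Compounds tested over ten concentrations ([…]) for 72 h on EVSA-T cells in MEM/10% FBS and MDA-MB-231 cells in RPMI-1640/10% FBS, seeded at 10000/well. Luminescent CellTiter-Glo readout; IC50 fitted after normalisation to controls.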

MDA-MB-231 cells = assay: Cell proliferation assay (CellTiter-Glo), MDA-MB-231; assay type: cell-based; settings: Homo sapiens, MDA-MB-231, 72 h, 72 h treatment, Celltiter-Glo luminescence
Summary of the method: as §1

SMILES	IC50 (EVSA-T cells) [nM]	IC50 (MDA-MB-231 cells) [nM]
C[C@@H]1CN(CC(=O)N2CC(C)(C)c3c2cc(Cc2ccc(F)cc2)c2nc(CC#N)nn32)[C@@H](CN2CCOC[C@H]2C)CN1 [Compound 196, 2-(4-(4-fluorobenzyl)-8,8-dimethyl-6-(2-((2R,5R)-5-methyl-2-(((R)-3-methylmorpholino)methyl)piperazin-1-yl)acetyl)-7,8-dihydro-6H-pyrrolo[2,3-e][1,2,4]triazolo[1,5-a]pyridin-2-yl)acetonitrile]	4	43
C[C@@H]1CN(CC(=O)N2CC(C)(C)c3c2cc(Cc2ccc(F)cc2N)c2ncnn32)[C@@H](CN2CCOC[C@H]2C)CN1 [Compound 129, 1-(4-(2-amino-4-fluorobenzyl)-8,8-dimethyl-7,8-dihydro-6H-pyrrolo[2,3-e][1,2,4]triazolo[1,5-a]pyridin-6-yl)-2-((2R,5R)-5-methyl-2-(((R)-3-methylmorpholino)methyl)piperazin-1-yl)ethan-1-one]	11	46
C[C@@H]1CN(CC(=O)N2CC(C)(C)c3c2cc(Cc2ccc(F)cc2)c2nc(C(F)F)nn32)[C@@H](CN2CCOC[C@H]2C)CN1 [Compound 142, 1-(2-(difluoromethyl)-4-(4-fluorobenzyl)-8,8-dimethyl-7,8-dihydro-6H-pyrrolo[2,3-e][1,2,4]triazolo[1,5-a]pyridin-6-yl)-2-((2R,5R)-5-methyl-2-(((R)-3-methylmorpholino)methyl)piperazin-1-yl)ethan-1-one]	2	50
C[C@@H]1CN(CC(=O)N2CC(C)(C)c3c2cc(Cc2ccc(F)cc2)c2n[nH]c(=O)n32)[C@@H](CN2CCOC[C@H]2C)CN1 [Compound 152, 4-(4-fluorobenzyl)-8,8-dimethyl-6-(2-((2R,5R)-5-methyl-2-(((R)-3-methylmorpholino)methyl)piperazin-1-yl)acetyl)-2,6,7,8-tetrahydro-1H-pyrrolo[2,3-e][1,2,4]triazolo[4,3-a]pyridin-1-one]	30	170
CC(=O)N(C)c1nc2c(Cc3ccc(F)cc3)cc3c(n2n1)C(C)(C)CN3C(=O)CN1C[C@@H](C)NC[C@@H]1CN1CCOC[C@H]1C [Compound 238, N-(4-(4-fluorobenzyl)-8,8-dimethyl-6-(2-((2R,5R)-5-methy 1-2-(((R)-3-methylmorpholino)methyl)piperazin-1-yl)acetyl)-7,8-dihydro-6H-pyrrolo[2,3-e][1,2,4]triazolo[1,5-a]pyridin-2-yl)-N-methylacetamide]	1.3	31
C[C@@H]1CN(CC(=O)N2CC(C)(C)c3c2cc(Cc2ccc(F)cc2)c2nc(C4CCOC4)nn32)[C@@H](CN2CCOC[C@H]2C)CN1 (stereo partly drawn) [Compound 163, 1-(4-(4-fluorobenzyl)-8,8-dimethyl-2-(tetrahydrofuran-3-yl)-7,8-dihydro-6H-pyrrolo[2,3-e][1,2,4]triazolo[1,5-a]pyridin-6-yl)-2-((2R,5R)-5-methyl-2-(((R)-3-methylmorpholino)methyl)piperazin-1-yl)ethan-1-one]	2	28
C[C@@H]1CN(CC(=O)N2CC(C)(C)c3c2cc(Cc2ccc(F)cc2)c2c(C#N)cnn32)[C@@H](CN2CCOC[C@H]2C)CN1 [Compound 105, 4-(4-fluorobenzyl)-8,8-dimethyl-6-(2-((2R,5R)-5-methyl-2-(((R)-3-methylmorpholino)methyl)piperazin-1-yl)acetyl)-7,8-dihydro-6H-pyrazolo[1,5-a]pyrrolo[2,3-e]pyridine-3-carbonitrile]	9	100
C[C@@H]1CN(CC(=O)N2CC(C)(C)c3c2cc(Cc2ccc(F)cc2)c2nn(Cc4ccncn4)c(=O)n32)[C@@H](CN2CCOC[C@H]2C)CN1 [Compound 246, 4-(4-fluorobenzyl)-8,8-dimethyl-6-(2-((2R,5R)-5-methyl-2-(((R)-3-methylmorpholino)methyl)piperazin-1-yl)acetyl)-2-(pyrimidin-4-ylmethyl)-2,6,7,8-tetrahydro-1H-pyrrolo[2,3-e][1,2,4]triazolo[4,3-a]pyridin-1-one]	3.5	4
